According to PubChem BioAssay (NCI):
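The compound was tested at five concentrations on cells cultured in 96-well plates, with a 48-hour exposure period. At the GI50, growth is halved. Definition used: TGI = concentration required for complete inhibition of growth.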

How the values were obtained:
Assay in all cases: NCI anticancer screen, dose series, 48 h
A498 renal = tested on: A498 renal
CAKI-1 renal = tested on: CAKI-1 renal
HCT-116 colon = tested on: HCT-116 colon
HOP-62 NSCLC = tested on: HOP-62 NSCLC
LOX IMVI melanoma = tested on: LOX IMVI melanoma
MALME-3M melanoma = tested on: MALME-3M melanoma
NCI-H460 lung = tested on: NCI-H460 lung
SF-268 CNS = tested on: SF-268 CNS
SF-295 CNS = tested on: SF-295 CNS
TK-10 renal = tested on: TK-10 renal

SMILES	TGI (A498 renal)	TGI (CAKI-1 renal)	TGI (HCT-116 colon)	TGI (HOP-62 NSCLC)	TGI (LOX IMVI melanoma)	GI50 (MALME-3M melanoma)	TGI (MALME-3M melanoma)	TGI (NCI-H460 lung)	TGI (SF-268 CNS)	TGI (SF-295 CNS)	TGI (TK-10 renal)	GI50 (A498 renal)	GI50 (CAKI-1 renal)	GI50 (HCT-116 colon)	GI50 (HOP-62 NSCLC)	GI50 (LOX IMVI melanoma)	GI50 (NCI-H460 lung)	GI50 (SF-268 CNS)	GI50 (SF-295 CNS)	GI50 (TK-10 renal)
Cc1ccccc1CN1CC2=C(CCN(Cc3ccccc3)C2=O)N2CCN=C12	> 100 µM	> 100 µM	> 100 µM	> 100 µM	> 100 µM	9.84 µM	> 100 µM	> 100 µM	> 100 µM	> 60.4 µM	> 100 µM									
C=CC[C@H]1C[C@@]2(C)OC[C@H](C(C)C)N2C1=O	> 100 µM	> 100 µM	> 100 µM	> 100 µM	> 100 µM		> 100 µM	> 100 µM	> 100 µM	> 100 µM	> 100 µM									
CCCCCCCCCCC(C)CCCCCCC(=O)OCC(COP(=O)([O-])OCC[N+](C)(C)C)OC(=O)CCCCCCC(C)CCCCCCCCCC (centres undefined)	> 100 µM	> 100 µM	> 100 µM	> 100 µM	> 100 µM		> 100 µM	> 100 µM	> 100 µM	> 100 µM	> 100 µM									
S=c1[nH]c(=S)c2sc(=S)n(-c3ccccc3)c2[nH]1	> 100 µM	> 100 µM	> 100 µM	> 100 µM	> 100 µM		> 100 µM	> 100 µM	> 100 µM	> 100 µM	> 100 µM									
CCOC(=O)CCCn1c(SC)nc2cc(-c3ccco3)[nH]c2c1=O	76 µM	90.4 µM	> 100 µM	> 100 µM	> 100 µM	> 100 µM	> 100 µM	> 100 µM	> 100 µM	54.8 µM	> 100 µM	27.4 µM	25.8 µM	49.8 µM	37 µM	57.8 µM	> 100 µM	52.7 µM	16.7 µM	35.1 µM
OC(C1=C/C(=C\c2ccncc2)c2ccccc21)c1ccncc1 (centres undefined)	27.3 µM	> 49.5 µM	28.2 µM	31.6 µM	32 µM		38.3 µM	28.2 µM	57.3 µM	31.4 µM	32.3 µM									
S=c1nc(Oc2ccc(Cl)c(Cl)c2)[nH]c(=S)[nH]1	77.6 µM	> 100 µM	> 60.9 µM	> 67.6 µM	37.8 µM		> 71.3 µM	64.9 µM	> 81.8 µM	> 100 µM	> 100 µM									
c1nc2cscc2c2cscc12	> 100 µM	> 100 µM	> 100 µM	> 100 µM	> 100 µM		> 100 µM	> 100 µM	> 100 µM	> 100 µM	> 100 µM									
O=[N+]([O-])c1ccc(-c2nc(N(CCO)CCO)c3ccccc3n2)o1	0.255 µM	3.33 µM	1.24 µM	0.671 µM	1.64 µM	0.155 µM	0.373 µM	0.38 µM	1.52 µM	1.03 µM		0.119 µM	0.282 µM	0.232 µM	0.145 µM	0.269 µM	0.0537 µM	0.211 µM	0.192 µM	0.286 µM
C=C1CC[C@@]2(C#N)[C@H]3[C@H](CC[C@@H]2C)[C@@H](C)C[C@@H](CC(C)(C)C#N)[C@H]13	58.1 µM	> 100 µM	11.2 µM	24.3 µM	14.5 µM	5.23 µM	40.8 µM	12.8 µM	35.3 µM	1.68 µM	31.5 µM	6.6 µM	1.73 µM	0.229 µM	2.33 µM	0.413 µM	0.877 µM	2.34 µM	0.171 µM	0.969 µM
COc1c(C)c2c(c(O)c1C/C=C(\C)CCC(=O)OCCN1CCOCC1)C(=O)OC2	> 100 µM	> 100 µM	> 100 µM	> 100 µM	> 100 µM	2.5 µM	> 100 µM	> 100 µM	> 100 µM	> 100 µM	> 100 µM	0.52 µM	0.299 µM	0.131 µM	0.457 µM	0.125 µM	0.0823 µM	0.532 µM	0.323 µM	> 24.7 µM
Fc1ccc(Oc2nccc(-c3c(-c4ccc(F)cc4)ncn3C3CCNCC3)n2)cc1	> 25 µM	> 25 µM	> 25 µM	> 25 µM	> 25 µM	> 25 µM	> 25 µM	> 25 µM	> 25 µM	> 25 µM	> 25 µM	> 25 µM	20.5 µM	> 25 µM	> 25 µM	> 25 µM	> 25 µM	> 25 µM	> 25 µM	> 19.9 µM
COc1ccc(C2=NN(C(=O)COc3ccc(Cl)cc3)C(O)(c3cc(F)c(Cl)cc3Cl)C2)cc1OC (centres undefined)	26.2 µM	3.6 µM	2.58 µM	30.8 µM	2.78 µM	1.72 µM	3.76 µM	24.3 µM	17.4 µM	11.8 µM	5.09 µM	13.1 µM	1.68 µM	1.23 µM	13.9 µM	1.4 µM	8.87 µM	3.91 µM		2.36 µM
N=C1c2nc3n(c2C(=O)c2nc4n(c21)CCCC4)CCCC3	8.16 µM	> 83.2 µM	> 100 µM	3.54 µM	2.15 µM	1.7 µM	3.7 µM	3.54 µM	> 74.9 µM	3.4 µM	> 100 µM	0.727 µM	19.1 µM	19.8 µM	0.921 µM	0.406 µM	1.59 µM	11.9 µM	1.74 µM	52.6 µM
CC1(C)OC[C@@H]([C@@]2(CO[Si](C)(C)C(C)(C)C)CC=CC(=O)O2)O1	36.1 µM	57.7 µM	44.6 µM	53.1 µM	> 100 µM	20.1 µM	47.6 µM	> 100 µM	89.2 µM	42 µM	40.7 µM	18.6 µM	12.2 µM	17.6 µM	31 µM	28.3 µM	26.6 µM	29 µM	19.6 µM	18.3 µM
